{
  "source": "patent EP0929311B1",
  "about": "“INHIBITION OF APOPTOSIS USING INTERLEUKIN-1 beta-CONVERTING ENZYME (ICE)/CED-3 FAMILY INHIBITORS” (Idun Pharmaceuticals, Inc., priority 1996, dated 1998)",
  "system": "granulocytes",
  "test": "Granulocyte/neutrophil survival in culture, hypodiploid nuclei by propidium iodide flow cytometry",
  "assay_type": "cell-based",
  "settings": "at 48 hours; granulocytes cultured at 37°C, hypodiploid DNA",
  "experimental": "Whole blood anticoagulated with Acid Citrate Dextrose (ACD) with a ratio of 1:5 ACD to blood was collected (~100 ml).\nUsing polypropylene plastic ware, neutrophils are isolated as follows: • 30 ml of the whole blood is added to 50 ml polypropylene centrifuge tubes containing 15 ml of 6% Dextran (in Saline). The blood is allowed to sediment for approximately 1 hour at room temperature.\nThe turbid straw colored layer harvested from the top of the cylinders into 50 ml conical polypropylene tubes. The blood cells were pelleted by centrifugation at 240 xg (Sorvall centrifuge at 1200 rpm) for 12 min. at 4°C with the brake on low. […]\nThe supernatant was aspirated and the neutrophil pellet resuspended in 4.0 ml cold PBS (w/o Ca, Mg) on ice. 10 µl of the neutrophil cell suspension was diluted with 990 µl of Trypan blue (1:100) and cells counted using a hemacytometer. The cell number and viability were determined. […]\nNeutrophils were resuspended in hypotonic fluorochrome solution at a density of 5×10^6 cells/ml. Propidium iodide fluorescence of individual nuclei was evaluated in FL2 and measured on a logarithmic scale while gating on physical parameters in forward and side scatter to exlude cell debris.\nAt least 10,000 events per sample were collected and the results were evaluated relative to a non-apoptotic neutrophil population. […]",
  "note": "Residues, ends and D or L forms follow the SMILES beside them. *: point of attachment. Cbz = O=C(OCc1ccccc1)*; CH2F = FC*",
  "data": [
    {"smiles": "COC(=O)C[C@H](NC(=O)[C@H](C)NC(=O)[C@@H](NC(=O)OCc1ccccc1)C(C)C)C(=O)CF", "note": "[zVADfmk] (Cbz-Val-Ala-Asp(OMe)-CH2F)", "values": [
      {"measurement": "effect on improving granulocyte survival", "value": "weak effect"}
    ]}
  ]
}
